Data: EP0238207B1, “Bactericidal mixtures” (PITMAN-MOORE INC., priority 1986, dated 1987)
Read-outs that look alike come from different tables or passages of the source.

Key:
[1] = cattle older than about six weeks; cited from earlier work
[2] = tested on: Salmonella dublin strain M738; assay: Synergy in experimental bovine salmonellosis, five repeated daily subcutaneous injections (Example 2); type: in vivo, calves; settings: for Mortality: s.c., five days
Excerpt: In planning the investigation of possible synergy between Compound A and sulphadimidine (SDD), it was decided that seven treatment groups (including an untreated control group) of eight calves each would be necessary, but because of the impossibility of housing this required total number of calves (56) at one time in the available isolation accommodation, it was planned to carry out two duplicate experiments each using seven groups of four calves.
• 1) "Sodium Sulfamethazine Injectable Solution 25%" - Cyanamid. This commercial preparation contained 250 mg/ml of sodium SDD, equivalent to 232 mg/ml of SDD. • 2) Aqueous solution of SDD, 100 mg/ml in dilute NaOH. • 3) Aqueous solution of Compound A, 20 mg/ml as the hydrochloride.
On the day of infection, Day 0, each calf received an oral dose of 50 ml of a log-phase culture of Salmonella dublin strain M738 diluted to contain an estimated 10¹⁰ organisms, using the published technique (White et al 1981a). A viable count on the inoculum was carried out.
On the basis of Day 0 (am) bodyweights the calves were randomly allocated into 7 groups of 4.
Using Day 0 bodyweights, 3 calves of identical weights to the day 0 weights of the 3 eliminated calves were allocated to the appropriate groups, and the remaining […] were randomly allocated to the 7 groups as above.
Administration of compounds in all cases was by subcutaneous injection, using different sides of the animal for Compound A and SDD when both were given in groups 4, 5 and 6. The first of five consecutive daily injections was given 43 hours after […], the other following at 24 hour intervals.

S. dublin strain M738 = assay: MIC by surface growth inhibition method, checkerboard two-fold dilution series; type: cell-based; settings: for MIC: Salmonella enterica, M738
Description: Estimation of the minimum inhibitory concentrations (MICs) of Compound A and SDD, alone and together, was carried out by a surface growth inhibition method, using a "checkerboard" two-fold dilution series, with Compound A and SDD ranges of […] and 256 to 1µg/ml respectively. Thus, including the control plates, a total of 100 different combinations were used. Dilutions were made in Oxoid Isosensitest Agar with plate inoculation by an automatic inoculator using a 2µl inoculum yielding semi-confluent growth over a disc approx. 7 mm diameter. End points were judged to be the lowest concentrations completely or almost completely inhibiting growth.

[3] = Serum concentrations in infected calves (Bratton-Marshall method for sulphonamide, bio-assay for Compound A); type: in vivo
Description: Blood samples for assay of sulphonamide by the Bratton-Marshall method and for Compound A by bio-assay were collected before and 24 hours after the first injection, 2, 5 and 24 hours after the second injection, 24 hours after the fourth injection and 2, 5 and 24 hours after the fifth injection.

S.dublin = assay: Treatment of acute salmonellosis in calves, compound administered alone; type: in vivo; settings: administered alone at dosages of up to 6 mg/kg
a range of organisms = settings: against a range of organisms; cited from earlier work

Compound: COc1cc(Cc2cnc(N)nc2N)cc(OC)c1OC [trimethoprim]
- oral bioavailability [1]: very poor

Compound: Cc1cc(C)nc(NS(=O)(=O)c2ccc(N)cc2)n1 [SDD, sulphadimidine]
- therapeutic effect ([2]; Group 1: SDD alone 200/100 mg/kg daily): therapeutically ineffective
- clinical recovery of surviving calves ([2]; Group 1: SDD alone 200/100 mg/kg, three surviving calves): very slow clinical recovery
- bodyweight of surviving calves ([2]; Group 1: SDD alone 200/100 mg/kg, three surviving calves, Day 21 versus Day 0): none had regained its Day 0 bodyweight by Day 21
- Mortality ([2]; Group 1: SDD alone, first dose 200 mg/kg, subsequent doses 100 mg/kg daily): 5 out of 8
- Mortality ([2]; Group 2: SDD alone 30 mg/kg daily): 5 out of 8
- growth at 24 hours (S. dublin strain M738; Compound A 0 µg/ml, SDD 1 µg/ml): +
- growth at 24 hours (S. dublin strain M738; Compound A 0 µg/ml, SDD 2 µg/ml): +
- growth at 24 hours (S. dublin strain M738; Compound A 0 µg/ml, SDD 4 µg/ml): +
- growth at 24 hours (S. dublin strain M738; Compound A 0 µg/ml, SDD 8 µg/ml): +
- growth at 24 hours (S. dublin strain M738; Compound A 0 µg/ml, SDD 16 µg/ml): +
- growth at 24 hours (S. dublin strain M738; Compound A 0 µg/ml, SDD 32 µg/ml): +
- growth at 24 hours (S. dublin strain M738; Compound A 0 µg/ml, SDD 64 µg/ml): +
- growth at 24 hours (S. dublin strain M738; Compound A 0 µg/ml, SDD 128 µg/ml): -
- growth at 24 hours (S. dublin strain M738; Compound A 0 µg/ml, SDD 256 µg/ml): -
- MIC (S. dublin strain M738): 128 µg/mL
- serum concentrations of SDD ([3]; Group 1: SDD alone 200/100 mg/kg daily s.c., throughout the dosing period): > 128 µg/mL

Compound: Cc1cc(Cc2cnc(N)nc2N)c2cccnc2c1N(C)C [Compound A, 2,4-diamino-5-(8-dimethylamino-7-methyl-5-quinolylmethyl) pyrimidine]
- Mortality ([2]; Group 3: Compound A alone 6 mg/kg daily): 5 out of 8
- therapeutic effect ([2]; Group 3: Compound A alone at 6 mg/kg daily): ineffective
- effect in treating acute salmonellosis (S.dublin) in calves (S.dublin): ineffective
- growth at 24 hours (S. dublin strain M738; Compound A 0.002 µg/ml, SDD 0 µg/ml): +
- growth at 24 hours (S. dublin strain M738; Compound A 0.004 µg/ml, SDD 0 µg/ml): +
- growth at 24 hours (S. dublin strain M738; Compound A 0.008 µg/ml, SDD 0 µg/ml): +
- growth at 24 hours (S. dublin strain M738; Compound A 0.016 µg/ml, SDD 0 µg/ml): +
- growth at 24 hours (S. dublin strain M738; Compound A 0.032 µg/ml, SDD 0 µg/ml): +
- growth at 24 hours (S. dublin strain M738; Compound A 0.064 µg/ml, SDD 0 µg/ml): +
- growth at 24 hours (S. dublin strain M738; Compound A 0.128 µg/ml, SDD 0 µg/ml): +
- growth at 24 hours (S. dublin strain M738; Compound A 0.256 µg/ml, SDD 0 µg/ml): -
- growth at 24 hours (S. dublin strain M738; Compound A 0.512 µg/ml, SDD 0 µg/ml): -
- MIC (S. dublin strain M738; each substance alone, Oxoid Isosensitest Agar, read-out: MIC): 0.256 µg/mL
- in vitro antibacterial activity (a range of organisms): good
- serum concentrations of Compound A ([3]; Group 3: Compound A alone at 6 mg/kg daily s.c.): > 0.256 µg/mL
